The target in experiment [1] is T1, Gag-Pol polyprotein [588-1127,Y768C]/[588-1147,Y768C] (Human immunodeficiency virus 1, UniProt P04585, Y768C).
T1 construct: 588-1127; 588-1147
As to the kind of experiment: HIV-1 RT Assay. Particulars: pH 7.8; 37 °C.

Experiment [2] addresses T2, Gag-Pol polyprotein [588-1027,K690N]/[588-1147,K690N] (Human immunodeficiency virus 1, UniProt P04585, K690N).
T2 construct: 588-1027; 588-1147
As to the kind of experiment: HIV-1 RT Assay. Particulars: pH 7.8; 37 °C.

The structures appear in SMILES notation. pIC50: −log10 of the molar value. Bounds are passed on as bounds.

As for `NC(=O)c1[nH]c2ccc(Cl)cc2c1S(=O)(=O)c1ccccc1` [5Cl3PhSO2-2IndolCONH2], the pIC50 in experiment [1] was 6.80; in experiment [2], under 5.30.

Consider `Cc1cc(C)cc(S(=O)(=O)c2c(C(N)=O)[nH]c3ccc(Cl)cc23)c1` [5-chloro-3-[(3,5-dimethylbenzene)sulfonyl]-1H-indole-2-carboxamide], for which the pIC50 was 6.89 in experiment [1] and under 5.30 in experiment [2].

Turning to `Cc1ccc(S(=O)(=O)c2c(C(N)=O)[nH]c3ccc(Cl)cc23)cc1` [5-chloro-3-[(4-methylbenzene)sulfonyl]-1H-indole-2-carboxamide], the values for the pIC50 in experiment [1] and in experiment [2] were 6.96 and under 5.30, respectively.

In general, pIC50 refers to the IC50 on a negative log10 scale, so that one unit is a factor of ten. The low end stands for a large IC50, the high end for a small IC50.

(Values after BindingDB's records for doi:10.1021/jm0211063 (Sapienza University of Rome, 2003).)
